Reference: patent publication US5462926A (Biomeasure, Inc., priority 1993, dated 1995)
Where two headings read alike, the source gives them in different places. Where a SMILES comes first, the peptide text is derived from it. Bridges are numbered along the chain shown (N, C = ends). [ ]: non-standard residue; d: D form. 2Nal = N[C@@H](Cc1ccc2ccccc2c1)C(=O)O; d2Nal = N[C@H](Cc1ccc2ccccc2c1)C(=O)O

Columns and labels:
[1] = target: T1, NMB receptors on C-6 cells (Rattus norvegicus, UniProt P24053); experiment: Binding of 125I-[D-Tyr0]NMB to C-6 glioblastoma cells; conditions: Ki by Cheng method, read-out: Ki 125I-NMB Binding, NMB Receptor, C-6 Cells
T1 construct: endogenous in cells; host or cells: rat glioblastoma C-6 cells
T1 sequence (P24053 1-390): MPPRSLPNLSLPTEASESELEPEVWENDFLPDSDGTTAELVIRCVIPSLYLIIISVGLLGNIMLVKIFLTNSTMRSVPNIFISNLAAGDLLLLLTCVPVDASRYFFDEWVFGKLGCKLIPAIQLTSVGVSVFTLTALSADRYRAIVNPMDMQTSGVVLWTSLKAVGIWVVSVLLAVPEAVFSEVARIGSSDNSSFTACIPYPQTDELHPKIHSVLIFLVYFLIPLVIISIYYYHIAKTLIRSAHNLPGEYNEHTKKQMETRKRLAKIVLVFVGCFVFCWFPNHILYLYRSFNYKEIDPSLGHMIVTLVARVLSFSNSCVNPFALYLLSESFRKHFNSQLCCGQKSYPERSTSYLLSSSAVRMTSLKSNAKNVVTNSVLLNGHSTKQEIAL
Experimental: Binding of ^125 I-[D-Tyr^0 ]NMB to C-6 glioblastoma and NMB-R transfected cells
Binding studies using rat glioblastoma C-6 or NMB-R transfected cells were performed as described previously [Benya, R. V. et al. Mol. Pharmacol. 42:1058 (1992); and Wang, L-H. et al. Biochem. J. 286:641 (1992)] by suspending disaggregated cells in binding buffer, which was composed of standing buffer ([…], 7.7 mM KCl, 1.0 mM EGTA, 0.02% soybean trypsin inhibitor) additionally containing 50 mM HEPES, 1 mM MgCl2, 1.5 mM CaCl2, 2.2 mM KH2 PO4, 0,015% glutamine, and 0.2% BSA (w/v) (pH 7.4). Incubations contained 75 pM ^125 I-[D-Tyr^0 ]NMB and 15×10^6 C-6 cells/ml or 2×10^6 NMB-R transfected cells/ml, for 60 min at 22° C. Nonsaturable binding of ^125 I-[D-Tyr^0 ]NMB was the amount of radioactivity associated with C-6 cells or NMB-R transfected cells when the incubation mixture contained […] NMB. Nonsaturable binding was<15% of total binding in all experiments; all values are reported herein as saturable binding (i.e., total minus nonsaturable binding).

[2] = target: T2, GRP receptors on rat pancreatic acini (Rattus norvegicus, UniProt P52500); experiment: Binding of 125I-[Tyr4]bombesin to pancreatic acini; conditions: read-out: Ki 125I-[Tyr4]Bn Binding, GRP Receptor, Rat Pancreatic Acini; Ki by Cheng method
T2 construct: from tissue; host or cells: dispersed pancreatic acini
Source text: Nonsaturable binding was<10% of total binding in all experiments.

NMB receptor = target: T3, NMB receptor (Rattus norvegicus, UniProt P24053); experiment: NMB membrane receptor assay, 125I-NMB, rat olfactory bulb membranes; assay type: binding; set-up: Membranes were prepared from rat olfactory bulb (NMB membrane receptor assay); from tissue; host or cells: rat olfactory bulb membranes; conditions: for Ki: Cheng method, unit inferred, read-out: affinity, 125I-NMB, Rat Olfactory bulb membranes (neuromedin B receptors)
T3 sequence (P24053 1-390): T1 sequence (P24053 1-390)

rat NMB receptor = target: T4, rat NMB receptor (Rattus norvegicus, UniProt P24053); experiment: Binding of 125I-[D-Tyr0]NMB to NMB-R transfected BALB 3T3 cells; conditions: for fold decrease in NMB receptor affinity compared with cyclo SS-octa (#1): structure-function comparison from Table 1
T4 construct: a full length NMB-preferring bombesin receptor clone generated from rat esophagus; expressed in transfected cells
T4 sequence (P24053 1-390): T1 sequence (P24053 1-390)
Experimental: Cells were passaged every 3-4 days at confluence, using 0.1% trypsin in 1 mM EDTA. Rat glioblastoma C-6 tumor cells were maintained similarly and were passaged weekly at confluence. Both cell lines were cultured at 37° C. in a 5% CO2 atmosphere. Rat AR 42J pancreatic acinar cells were cultured in Dulbecco's modified Eagle's medium (DMEM) without antibiotics and supplemented with 10% (vol/vol) fetal calf serum. The incubation atmosphere consisted of 10% CO2 -90% humidified air at 37° C.

GRP receptor = GRP receptor (Rattus norvegicus, UniProt P52500); experiment: Amylase release from rat pancreatic acini (alone or Bn-stimulated); assay type: cell-based; set-up: from tissue; host or cells: dispersed pancreatic acini; conditions: for Amylase Release, analog Alone (10 μM): analog 10 μM alone, control 4 ± 1; for Amylase Release, analog Plus Bn (0.3 nM): analog 10 μM plus Bn 0.3 nM, Bn without analog 15 ± 1; for IC50: read-out: IC50 Amylase Release, GRP Receptor, Rat Pancreatic Acini
Experimental: pancreatic acini or [^3 H]myo[2H]inositolloaded NMBR transfected cell
were incubated either with no additives, the somatostatin octapeptide
analog, Bn, or NMB, or a combination for 30 min at 37° C.. Amylase
release from pancreatic acini was expressed at the indicated percent of
the total cellular amylase released during the incubation. [^3 H]IP i
expressed in dpm's. To test for inhibitory effects, the effect of
somatostatin analog (10 μM) was determined on 0.3 nM Bnstimulated

[3] = NMB-R transfected BALB 3T3 cells, Ki by Cheng method, read-out: Ki 125I-NMB Binding, NMB Receptor, Transfected Cells
[4] = NMB-R transfected cells, value or range given for a group, read-out: K1, 125I-NMB binding to NMB-R transfected cells (text)

T2 sequence (P52500 whole entry): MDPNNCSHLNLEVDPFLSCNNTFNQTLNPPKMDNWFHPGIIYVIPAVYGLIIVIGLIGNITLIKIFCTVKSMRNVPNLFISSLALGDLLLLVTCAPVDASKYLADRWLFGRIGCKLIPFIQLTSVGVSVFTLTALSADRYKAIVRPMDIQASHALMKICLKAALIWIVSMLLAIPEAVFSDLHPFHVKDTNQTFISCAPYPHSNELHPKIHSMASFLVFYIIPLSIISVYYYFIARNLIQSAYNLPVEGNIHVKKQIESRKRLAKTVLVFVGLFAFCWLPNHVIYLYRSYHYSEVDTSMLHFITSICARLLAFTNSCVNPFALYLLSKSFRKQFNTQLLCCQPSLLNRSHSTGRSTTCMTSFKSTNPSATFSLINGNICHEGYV
Sequence of GRP receptor (P52500 whole entry): as above

Structure (SMILES) | Ki [1] | Ki [2] | Ki (NMB receptor) | Ki (rat NMB receptor; [3]) | fold by which cyclo SS-octa is more potent than the analog, 125I-NMB binding (rat NMB receptor; NMB-R transfected cells) | Ki (rat NMB receptor; [4]) | fold decrease in NMB receptor affinity compared with cyclo SS-octa (#1) (rat NMB receptor) | Amylase Release, analog Alone (10 μM) (GRP receptor) | Amylase Release, analog Plus Bn (0.3 nM) (GRP receptor) | IC50 (GRP receptor) | fold greater affinity for NMB receptors than mu opioid receptors (NMB receptor; membranes, Table 4)
CC(C)[C@@H]1NC(=O)[C@H](CCCCN)NC(=O)[C@@H](Cc2c[nH]c3ccccc23)NC(=O)[C@H](Cc2ccc(O)cc2)NC(=O)[C@@H](NC(=O)[C@H](N)Cc2c[nH]c3ccccc23)CSSC[C@@H](C(=O)N[C@@H](Cc2ccc3ccccc3c2)C(N)=O)NC1=O [Analog #12, H2 -D-Trp-Cys-Tyr-D-Trp-Lys-Val-Cys-Nal-NH2] (H-[dW]CY[dW]KVC[2Nal]-NH2; disulfide 2-7) | 1780 ± 109 nM | > 10000 nM | 1180 ± 520 nM | 1410 ± 127 nM | 9 fold | 1400 to 2300 nM | 4 to 7 fold | 3 ± 1 % total | 13 ± 1 % total | > 10000 nM | 
CC(C)[C@@H]1NC(=O)[C@H](CCCCN)NC(=O)[C@@H](Cc2ccc3ccccc3c2)NC(=O)[C@H](Cc2ccc(O)cc2)NC(=O)[C@@H](NC(=O)[C@H](N)Cc2ccc3ccccc3c2)CSSC[C@@H](C(=O)N[C@@H](Cc2ccc3ccccc3c2)C(N)=O)NC1=O [Analog #17, H2 -D-Nal-Cys-Tyr-D-Nal-Lys-Val-Cys-Nal-NH2] (H-[d2Nal]CY[d2Nal]KVC[2Nal]-NH2; disulfide 2-7) | 313 ± 33 nM | > 10000 nM | 850 ± 300 nM | 399 ± 68 nM | 2 fold |  |  | 4 ± 2 % total | 19 ± 1 % total | > 10000 nM | 
CC(C)[C@@H]1NC(=O)[C@H](CCCCN)NC(=O)[C@@H](Cc2c[nH]c3ccccc23)NC(=O)[C@H](Cc2ccc(O)cc2)NC(=O)[C@@H](NC(=O)[C@H](N)Cc2ccccc2)CSSC[C@@H](C(=O)N[C@@H](Cc2ccc3ccccc3c2)C(N)=O)NC1=O [Analog #4, H2 -D-Phe-Cys-Tyr-D-Trp-Lys-Val-Cys-Nal-NH2] (H-[dF]CY[dW]KVC[2Nal]-NH2; disulfide 2-7) | 848 ± 191 nM | 21900 ± 4260 nM | 245 ± 130 nM | 818 ± 68 nM |  |  | 4 to 7 fold | 4 ± 2 % total | 14 ± 1 % total | > 10000 nM | 
CC(C)[C@@H]1NC(=O)[C@H](CCCCN)NC(=O)[C@@H](Cc2c[nH]c3ccccc23)NC(=O)[C@H](Cc2ccc(O)cc2)NC(=O)[C@@H](NC(=O)[C@@H](N)Cc2ccc3ccccc3c2)CSSC[C@@H](C(=O)N[C@H](Cc2ccc3ccccc3c2)C(N)=O)NC1=O [Analog #9, H2 -Nal-Cys-Tyr-D-Trp-Lys-Val-Cys-D-Nal-NH2] (H-[2Nal]CY[dW]KVC[d2Nal]-NH2; disulfide 2-7) | 1160 ± 214 nM | > 10000 nM | 590 ± 170 nM | 1160 ± 229 nM |  |  |  | 3 ± 1 % total | 16 ± 1 % total | > 10000 nM | 
CC(C)[C@@H]1NC(=O)[C@H](CCCCN)NC(=O)[C@@H](Cc2c[nH]c3ccccc23)NC(=O)[C@H](Cc2ccc(O)cc2)NC(=O)[C@@H](NC(=O)[C@H](N)Cc2ccc3ccccc3c2)CSSC[C@H](C(=O)N[C@@H](Cc2ccc3ccccc3c2)C(N)=O)NC1=O [Analog #11, H2 -D-Nal-Cys-Tyr-D-Trp-Lys-Val-D-Cys-Nal-NH2] (H-[d2Nal]CY[dW]KV[dC][2Nal]-NH2; disulfide 2-7) | 1740 ± 345 nM | > 10000 nM | 230 ± 70 nM | 1080 ± 199 nM |  |  | 5 fold | 2 ± 1 % total | 14 ± 1 % total | > 10000 nM | > 50 fold
NCCCC[C@@H]1NC(=O)[C@@H](Cc2c[nH]c3ccccc23)NC(=O)[C@H](Cc2ccc(O)cc2)NC(=O)[C@@H](NC(=O)[C@H](N)Cc2ccc3ccccc3c2)CSSC[C@@H](C(=O)N[C@@H](Cc2ccc3ccccc3c2)C(N)=O)NC(=O)[C@H](Cc2ccccc2)NC1=O [Analog #13, H2 -D-Nal-Cys-Tyr-D-Trp-Lys-Phe-Cys-Nal-NH2] (H-[d2Nal]CY[dW]KFC[2Nal]-NH2; disulfide 2-7) | 213 ± 13 nM | > 10000 nM | 270 ± 90 nM | 397 ± 72 nM | 2 fold |  | 2 to 3 fold | 3 ± 1 % total | 14 ± 1 % total | > 10000 nM | 
CC(C)[C@@H]1NC(=O)[C@H](CCCCN)NC(=O)[C@@H](Cc2c[nH]c3ccccc23)NC(=O)[C@H](Cc2ccc(O)cc2)NC(=O)[C@@H](NC(=O)[C@H](N)Cc2ccc3ccccc3c2)CSSC[C@@H](C(=O)N[C@H](Cc2ccc3ccccc3c2)C(N)=O)NC1=O [Analog #8, H2 -D-Nal-Cys-Tyr-D-Trp-Lys-Val-Cys-D-Nal-NH2] (H-[d2Nal]CY[dW]KVC[d2Nal]-NH2; disulfide 2-7) | 670 ± 73 nM | > 10000 nM | 1480 ± 500 nM | 1920 ± 201 nM | 9 fold | 1400 to 2300 nM | 6 fold | 2 ± 1 % total | 14 ± 1 % total | > 10000 nM | 
CC(C)[C@@H]1NC(=O)[C@H](CCCCN)NC(=O)[C@@H](Cc2c[nH]c3ccccc23)NC(=O)[C@H](Cc2ccc(O)cc2)NC(=O)[C@H](NC(=O)[C@H](N)Cc2ccc3ccccc3c2)CSSC[C@@H](C(=O)N[C@@H](Cc2ccc3ccccc3c2)C(N)=O)NC1=O [Analog #10, H2 -D-Nal-D-Cys-Tyr-D-Trp-Lys-Val-Cys-Nal-NH2] (H-[d2Nal][dC]Y[dW]KVC[2Nal]-NH2; disulfide 2-7) | 1150 ± 518 nM | > 10000 nM | 920 ± 350 nM | 960 ± 109 nM |  |  | 5 fold | 3 ± 1 % total | 16 ± 1 % total | > 10000 nM | 
